US8926944B2, “Radiolabeled prostate specific membrane antigen inhibitors” (Molecular Insight Pharmaceuticals, priority 2011, dated 2015)

Key:
PSMA = target: T1, PSMA (Homo sapiens, UniProt Q04609); experiment: competitive binding assay against 123I-DCIT in PSMA positive LNCaP cells; details: Lu complexes; competition with 3 nM 123I DCIT on LNCaP cells, 1 hour at room temperature
T1 construct: host or cells: LNCaP human prostate cancer cells
Protocol: The compounds of Formula I or Formula II were screened in a human prostate cancer cell binding assay using PSMA positive (+), LnCap cells.
Briefly, LNCaP and PC3 human prostate cancer cells were obtained from American Type Culture Collection, Rockville, Md. LNCaP cells were maintained in RPMI-1640 medium supplemented with 10% fetal bovine serum (FBS). Binding of the radiolabeled compound and competition with cold derivatives to LNCaP cells was performed according to published methods. Cells were plated in 12-well plates at approximately 4×10^5 cells/well and incubated for 48 hours in a humidified incubator at 37° C./5% carbon dioxide prior to addition of compound. Solutions of the Formula I or Formula II compounds were prepared and diluted in serum-free cell culture medium containing 0.5% bovine serum albumin (BSA) in combination with 3 nM ^123I DCIT (known inhibitor). Total binding was determined by incubating ^123I-DCIT without test compound. Plates were incubated at room temperature for 1 hour. Cells were removed from the plates and transferred to eppendorff tubes. Samples were microcentrifuged for 15 seconds at 10K×g. The medium was aspirated and the pellet was washed twice by dispersal in fresh assay medium followed by microcentrifugation. Cell binding of ^123I DCIT was determined by counting the cell pellet in an automated gamma counter. Nonspecific binding was determined as the counts associated with the cells after incubating with 2 uM nonradiolabeled compound or 2-phosphonomethyl-pentanedioic acid (PMPA). Table 3 illustrates the IC50 values of representative Formula II complexes.

LNCap tumor cells = experiment: tissue biodistribution study in LNCap xenograft mice; assay type: in vivo; details: 177Lu complex; for concentration in kidneys versus LNCap tumor cells: 4 hours post administration; for concentration in LNCap tumor cells versus kidney: 24 hours and 96 hours post administration; for change of concentration in kidney: later time intervals (24 and 96 hours)
Protocol: FIG. 2 is a graph of the tissue biodistribution of a ^111In analog of the compound of Example 3, in LNCap Xenograft mice.
FIGS. 1A and 1B illustrate results of a bio-distribution study in LNCap xenograft mice of a GUG-DOTA-^177Lu complex (compound (A)) and a GUL-DOTA-^177Lu complex (compound (B)) according to Formula II.
In contrast, the inventive compounds accumulate within tumor cells with only a slight decrease in intratumoral concentration observed after 96 hours.
FIG. 2 illustrates results of a bio-distribution study in LNCap xenograft mice using a GUL-DOTA-^111In complex and a hydrophobic aminohexanoic acid linker. […] The inventors hypothesize that the low biodistribution of MIP-1450 LNCap tumor cells may be due to this compounds low affinity for PSMA expressed on the surface of LNCap cells. As stated above, it was unexpectedly that presence of carboxylic acid groups in the linker region increased affinity of Formula I compounds for PSMA. This increase in binding affinity is due, at least in part to additional cooperative binding interactions of the free carboxylic acid groups with amino acid residues of PSMA. Illustrative of Formula I compound-radionuclide complexes that have one or more carboxylic acid groups as part of the linker group include without limitation the following compounds: […]

T1 sequence (Q04609 whole entry): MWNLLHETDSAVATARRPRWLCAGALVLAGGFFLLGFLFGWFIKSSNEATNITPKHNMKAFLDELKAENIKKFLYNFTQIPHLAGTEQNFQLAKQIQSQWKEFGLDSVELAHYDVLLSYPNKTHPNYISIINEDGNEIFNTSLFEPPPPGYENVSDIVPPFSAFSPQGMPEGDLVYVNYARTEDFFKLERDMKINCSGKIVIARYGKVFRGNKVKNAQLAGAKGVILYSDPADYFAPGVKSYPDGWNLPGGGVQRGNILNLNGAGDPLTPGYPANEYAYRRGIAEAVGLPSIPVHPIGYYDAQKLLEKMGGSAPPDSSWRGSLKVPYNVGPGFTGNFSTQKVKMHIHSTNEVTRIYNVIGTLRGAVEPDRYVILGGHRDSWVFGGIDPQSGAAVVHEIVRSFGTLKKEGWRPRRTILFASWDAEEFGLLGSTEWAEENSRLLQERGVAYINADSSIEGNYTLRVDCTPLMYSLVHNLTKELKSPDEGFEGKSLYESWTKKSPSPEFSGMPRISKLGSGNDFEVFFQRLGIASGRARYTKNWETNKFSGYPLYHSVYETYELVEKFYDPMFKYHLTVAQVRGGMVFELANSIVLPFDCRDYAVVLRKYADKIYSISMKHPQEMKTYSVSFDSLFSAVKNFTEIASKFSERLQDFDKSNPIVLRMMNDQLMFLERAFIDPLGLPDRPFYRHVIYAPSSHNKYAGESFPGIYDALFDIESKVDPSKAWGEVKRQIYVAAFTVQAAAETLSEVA

Row | Compound | IC50 (PSMA) [nM] | further results
1 | (16S,20S)-10,18-dioxo-1-((4-((1,4,7,10-tetrakis(carboxymethyl)-1,4,7,10-tetraazacyclododecan-2-yl)methyl)phenyl)amino)-1-thioxo-2,11,17,19-tetraazadocosane-16,20,22-tricarboxylate Lu complex [Lu-MIP-1512] | 23 | 
2 | (10S,17S,21S)-10-(2-carboxyethyl)-8,11,19-trioxo-1-((4-((1,4,7,10-tetrakis(carboxymethyl)-1,4,7,10-tetraazacyclododecan-2-yl)methyl)phenyl)amino)-1-thioxo-2,9,12,18,20-pentaazatricosane-17,21,23-tricarboxylate Lu complex [Lu-MIP-1523] | 54 | 
3 | (10S,17S,21S)-10-(4-fluorobenzyl)-8,11,19-trioxo-1-((4-((1,4,7,10-tetrakis(carboxymethyl)-1,4,7,10-tetraazacyclododecan-2-yl)methyl)phenyl)amino)-1-thioxo-2,9,12,18,20-pentaazatricosane-17,21,23-tricarboxylate Lu complex [Lu-MIP-1546] | 15 | 
4 | O=C(O)CC[C@H](NC(=O)N[C@@H](CCCCNC(=O)[C@H](Cc1ccc2ccccc2c1)NC(=O)CCCCCNC(=S)Nc1ccc(CC2CN(CC(=O)O)CCN(CC(=O)O)CCN(CC(=O)O)CCN2CC(=O)O)cc1)C(=O)O)C(=O)O.[177Lu] (stereo partly drawn) [B, ^177Lu-complex of (10S,17S,21S)-10-(naphthalen-2-ylmethyl)-8,11,19-trioxo-1-((4-((1,4,7,10-tetrakis(carboxymethyl)-1,4,7,10-tetraazacyclododecan-2-yl)methyl)phenyl)amino)-1-thioxo-2,9,12,18,20-pentaazatricosane-17,21,23-tricarboxylic acid] |  | concentration in kidneys versus LNCap tumor cells (LNCap tumor cells): concentrate to a greater extent in the kidneys than LNCap tumor cells; concentration in LNCap tumor cells versus kidney (LNCap tumor cells): the concentration is greater in LNCap tumor cells than kidney; change of concentration in kidney (LNCap tumor cells): significant reduction
5 | (10S,13S,20S,24S)-13-(2-carboxyethyl)-10-(4-fluorobenzyl)-8,11,14,22-tetraoxo-1-((4-((1,4,7,10-tetrakis(carboxymethyl)-1,4,7,10-tetraazacyclododecan-2-yl)methyl)phenyl)amino)-1-thioxo-2,9,12,15,21,23-hexaazahexacosane-20,24,26-tricarboxylate Lu complex [Lu-MIP-1550] | 22 | 
6 | (10S,17S,21S)-10-benzyl-8,11,19-trioxo-1-((4-((1,4,7,10-tetrakis(carboxymethyl)-1,4,7,10-tetraazacyclododecan-2-yl)methyl)phenyl)amino)-1-thioxo-2,9,12,18,20-pentaazatricosane-17,21,23-tricarboxylate-Lu complex [Lu-MIP-1530] | 21 | 
7 | (10S,17S,21S)-10-(naphthalen-2-ylmethyl)-8,11,19-trioxo-1-((4-((1,4,7,10-tetrakis(carboxymethyl)-1,4,7,10-tetraazacyclododecan-2-yl)methyl)phenyl)amino)-1-thioxo-2,9,12,18,20-pentaazatricosane-17,21,23-tricarboxylate Lu complex [Lu-MIP-1545] | 10 | 
8 | (11S,16S,20S)-11-benzyl-10,13,18-trioxo-1-((4-((1,4,7,10-tetrakis(carboxymethyl)-1,4,7,10-tetraazacyclododecan-2-yl)methyl)phenyl)amino)-1-thioxo-2,9,12,17,19-pentaazadocosane-16,20,22-tricarboxylate Lu complex [Lu-MIP-1548] | 77 | 
9 | ^177Lu-complex of (11S,16S,20S)-11-(2-carboxyethyl)-10,13,18-trioxo-1-((4-((1,4,7,10-tetrakis(carboxymethyl)-1,4,7,10-tetraazacyclododecan-2-yl)methyl)phenyl)amino)-1-thioxo-2,9,12,17,19-pentaazadocosane-16,20,22-tricarboxylate |  | concentration in kidneys versus LNCap tumor cells (LNCap tumor cells): concentrate to a greater extent in the kidneys than LNCap tumor cells; concentration in LNCap tumor cells versus kidney (LNCap tumor cells): the concentration is greater in LNCap tumor cells than kidney; change of concentration in kidney (LNCap tumor cells): significant reduction
10 | (13S,17S)-10,15-dioxo-1-((4-((1,4,7,10-tetrakis(carboxymethyl)-1,4,7,10-tetraazacyclododecan-2-yl)methyl)phenyl)amino)-1-thioxo-2,9,14,16-tetraazanonadecane-13,17,19-tricarboxylate Lu complex [Lu-MIP-1526] | 78 | 
11 | (11S,16S,20S)-11-(2-carboxyethyl)-10,13,18-trioxo-1-((4-((1,4,7,10-tetrakis(carboxymethyl)-1,4,7,10-tetraazacyclododecan-2-yl)methyl)phenyl)amino)-1-thioxo-2,9,12,17,19-pentaazadocosane-16,20,22-tricarboxylate Lu complex [Lu-MIP-1519] | 12 | 
12 | (3S,7S,14S,17S)-14-benzyl-5,13,16-trioxo-17-(6-(3-(4-((S)-1,4,7,10-tetrakis(carboxymethyl)-1,4,7,10-tetraazacyclododecan-2-yl)methyl)phenyl)thioureido)hexanamido)-4,6,12,15-tetraazanonadecane-1,3,7,19-tetracarboxylate Lu complex [Lu-MIP-1531] | 28 | 
